Measurements taken from US6914045B2, “Glycopeptide antibiotics” (Wyeth Holdings Corporation, priority 2001, dated 2005).
In brackets after ≈: the same amount, converted by molar mass.

Experiments:
Assay in all cases: in vitro antibacterial evaluation, MIC by broth dilution
Format in all cases: cell-based
Staphylococcus sp. = conditions: broth dilution, 18 hours at 35° C.
Procedure, shortened: (§1)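 Inoculum 5×10^5 CFU/mL; concentrations 64 to 0.06 μg/mL; MIC defined as lowest inhibitory level. Conducted by broth dilution under NCCLS guidelines.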

Escherichia coli = conditions: 18 hours at 35° C.
Procedure, shortened: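 Step 1: dilute antibiotic across 64-0.06 μg/mL in Muller-Hinton II […]. Step 2: inoculate at 5×10^5 CFU/mL.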

Streptococcus sp. = conditions: broth dilution, 18 hours at 35° C.
Procedure, shortened: as §1

Enterococcus sp. = conditions: broth dilution, 18 hours at 35° C.
Procedure, shortened: as §1

[1] = Enterococcus faecalis (ATCC 29212)
[2] = Enterococcus faecalis (GC 4553)
[3] = Enterococcus faecalis (GC 4554)

## CC(c1ccccc1)C1NC(=O)CNC(=O)C(CO)NC(=O)C(C(O)C2CNC(=N)N2C2OC(CO)C(O)C(O)C2O)NC(=O)C(C(O)C2CNC(=N)N2)NC(=O)C(Cc2ccc(OC3OC(CO)C(OC4OC(COC(=O)NCc5ccccc5)C(O)C(O)C4O)C(O)C3O)cc2)NC1=O (stereo not drawn) [Example 257b]
Staphylococcus sp.
  MIC Coagulase Negative Staphylococcus (GC 4547): 2 µg/mL (≈ 1.4 µM)
  MIC Coagulase Negative Staphylococcus (GC 4548): 2 µg/mL (≈ 1.4 µM)
  MIC Coagulase Negative Staphylococcus (GC 4549): 2 µg/mL (≈ 1.4 µM)
  MIC Coagulase Negative Staphylococcus (GC 4551): 4 µg/mL (≈ 2.8 µM)
  MIC Coagulase Negative Staphylococcus (GC 6257): 1 µg/mL (≈ 0.7 µM)
  MIC Staphylococcus aureus (ATCC 29213): 0.5 µg/mL (≈ 0.35 µM)
  MIC Staphylococcus aureus (GC 1131): 0.5 µg/mL (≈ 0.35 µM)
  MIC Staphylococcus aureus (GC 3051): 0.5 µg/mL (≈ 0.35 µM)
  MIC Staphylococcus aureus (GC 3053): 0.5 µg/mL (≈ 0.35 µM)
  MIC Staphylococcus aureus (GC 4541): 0.5 µg/mL (≈ 0.35 µM)
  MIC Staphylococcus aureus (GC 4542): 0.5 µg/mL (≈ 0.35 µM)
  MIC Staphylococcus aureus (GC 4544): 0.5 µg/mL (≈ 0.35 µM)
  MIC Staphylococcus aureus (GC 4545): 0.5 µg/mL (≈ 0.35 µM)
  MIC Staphylococcus aureus-SMITH (GC 4543): 0.5 µg/mL (≈ 0.35 µM)
  MIC Staphylococcus haemolyticus (GC 4546): 2 µg/mL (≈ 1.4 µM)
Staphylococcus sp.; strain ATCC 29213
  MIC Staphylococcus aureus (ATCC 29213): 0.5 µg/mL (≈ 0.35 µM)
Staphylococcus sp.; strain GC 1131
  MIC Staphylococcus aureus (GC 1131): 0.5 µg/mL (≈ 0.35 µM)
Staphylococcus sp.; strain GC 3051
  MIC Staphylococcus aureus (GC 3051): 0.5 µg/mL (≈ 0.35 µM)
Staphylococcus sp.; strain GC 3053
  MIC Staphylococcus aureus (GC 3053): 0.5 µg/mL (≈ 0.35 µM)
Staphylococcus sp.; strain GC 4541
  MIC Staphylococcus aureus (GC 4541): 0.5 µg/mL (≈ 0.35 µM)
Staphylococcus sp.; strain GC 4542
  MIC Staphylococcus aureus (GC 4542): 0.5 µg/mL (≈ 0.35 µM)
Staphylococcus sp.; strain GC 4544
  MIC Staphylococcus aureus (GC 4544): 0.5 µg/mL (≈ 0.35 µM)
Staphylococcus sp.; strain GC 4545
  MIC Staphylococcus aureus (GC 4545): 0.5 µg/mL (≈ 0.35 µM)
Escherichia coli
  MIC Escherichia coli (ATCC 25922): >0.5 µg/mL
  MIC Escherichia coli (GC 4559): >0.5 µg/mL
  MIC Escherichia coli (GC 4560): 0.5 µg/mL (≈ 0.35 µM)
Streptococcus sp.
  MIC Streptococcus agalactiae (GC 4564): 1 µg/mL (≈ 0.7 µM)
  MIC Streptococcus pneumoniae (ATCC 6301): 0.25 µg/mL (≈ 0.175 µM)
  MIC Streptococcus pneumoniae (GC 1894): 0.25 µg/mL (≈ 0.175 µM)
  MIC Streptococcus pneumoniae (GC 4565): 0.5 µg/mL (≈ 0.35 µM)
  MIC Streptococcus pyogenes (GC 4563): 0.12 µg/mL (≈ 0.084 µM)
Streptococcus sp.; strain ATCC 6301
  MIC Streptococcus pneumoniae (ATCC 6301): 0.25 µg/mL (≈ 0.175 µM)
Streptococcus sp.; strain GC 1894
  MIC Streptococcus pneumoniae (GC 1894): 0.25 µg/mL (≈ 0.175 µM)
Streptococcus sp.; strain GC 4563
  MIC Streptococcus pyogenes (GC 4563): 0.12 µg/mL (≈ 0.084 µM)
Streptococcus sp.; strain GC 4564
  MIC Streptococcus agalactiae (GC 4564): 1 µg/mL (≈ 0.7 µM)
Streptococcus sp.; strain GC 4565
  MIC Streptococcus pneumoniae (GC 4565): 0.5 µg/mL (≈ 0.35 µM)
Enterococcus sp.; Enterococcus avium (GC 4558)
  MIC Enterococcus avium (GC 4558): 0.5 µg/mL (≈ 0.35 µM)
Enterococcus sp.; [1]
  MIC Enterococcus faecalis (ATCC 29212): 0.5 µg/mL (≈ 0.35 µM)
Enterococcus sp.; [2]
  MIC Enterococcus faecalis (GC 4553): 0.5 µg/mL (≈ 0.35 µM)
Enterococcus sp.; [3]
  MIC Enterococcus faecalis (GC 4554): >0.5 µg/mL
Enterococcus sp.; Enterococcus faecalis (GC 6189)
  MIC Enterococcus faecalis (GC 6189): 0.5 µg/mL (≈ 0.35 µM)
Enterococcus sp.; Enterococcus faecium (GC 2243)
  MIC Enterococcus faecium (GC 2243): 16 µg/mL (≈ 11.2 µM)
Enterococcus sp.; Enterococcus faecium (GC 4556)
  MIC Enterococcus faecium (GC 4556): 16 µg/mL (≈ 11.2 µM)
Enterococcus sp.; Enterococcus faecium (GC 4557)
  MIC Enterococcus faecium (GC 4557): 2 µg/mL (≈ 1.4 µM)
Enterococcus sp.
  MIC Enterococcus faecalis (GC 2242): 0.5 µg/mL (≈ 0.35 µM)
  MIC Enterococcus faecalis (GC 2691): 0.5 µg/mL (≈ 0.35 µM)
  MIC Enterococcus faecalis (GC 3059): 0.5 µg/mL (≈ 0.35 µM)
  MIC Enterococcus faecalis (GC 4552): >0.5 µg/mL
Enterococcus sp.; strain ATCC 29212
  MIC Enterococcus faecalis (ATCC 29212): 0.5 µg/mL (≈ 0.35 µM)
Enterococcus sp.; strain GC 2242
  MIC Enterococcus faecalis (GC 2242): 0.5 µg/mL (≈ 0.35 µM)
Enterococcus sp.; strain GC 2243
  MIC Enterococcus faecium (GC 2243): 16 µg/mL (≈ 11.2 µM)
Enterococcus sp.; strain GC 2691
  MIC Enterococcus faecalis (GC 2691): 0.5 µg/mL (≈ 0.35 µM)
Enterococcus sp.; strain GC 3059
  MIC Enterococcus faecalis (GC 3059): 0.5 µg/mL (≈ 0.35 µM)
Enterococcus sp.; strain GC 4552
  MIC Enterococcus faecalis (GC 4552): >0.5 µg/mL
Enterococcus sp.; strain GC 4553
  MIC Enterococcus faecalis (GC 4553): 0.5 µg/mL (≈ 0.35 µM)
Enterococcus sp.; strain GC 4554
  MIC Enterococcus faecalis (GC 4554): >0.5 µg/mL
Enterococcus sp.; strain GC 4556
  MIC Enterococcus faecium (GC 4556): 16 µg/mL (≈ 11.2 µM)
Enterococcus sp.; strain GC 4557
  MIC Enterococcus faecium (GC 4557): 2 µg/mL (≈ 1.4 µM)
Enterococcus sp.; strain GC 4558
  MIC Enterococcus avium (GC 4558): 0.5 µg/mL (≈ 0.35 µM)
Enterococcus sp.; strain GC 6189
  MIC Enterococcus faecalis (GC 6189): 0.5 µg/mL (≈ 0.35 µM)

## CC(C)CC(=O)OC1C(OC2C(CO)OC(Oc3ccc(CC4NC(=O)C(C(C)c5ccc(F)cc5)NC(=O)CNC(=O)C(CO)NC(=O)C(C(O)C5CNC(=N)N5C5OC(CO)C(O)C(O)C5O)NC(=O)C(C(O)C5CNC(=N)N5)NC4=O)cc3)C(O)C2O)OC(CO)C(O)C1O (stereo not drawn) [Example 261b, Cyclo[glycyl-4-fluoro-β-methylphenylalanyl-O-[4-O-[2-O-(3-methylbutanoyl)hexopyranosyl]-hexopyranosyl]tyrosyl-3-(2-iminoimidazolidin-4-yl)seryl-3-(3-hexopyranosyl-2-imino-imidazolidin-4-yl)serylseryl]]
Staphylococcus sp.
  MIC Coagulase Negative Staphylococcus (GC 4547): 8 µg/mL (≈ 5.72 µM)
  MIC Coagulase Negative Staphylococcus (GC 4548): 4 µg/mL (≈ 2.86 µM)
  MIC Coagulase Negative Staphylococcus (GC 4549): 4 µg/mL (≈ 2.86 µM)
  MIC Coagulase Negative Staphylococcus (GC 4551): 8 µg/mL (≈ 5.72 µM)
  MIC Staphylococcus aureus (ATCC 29213): 8 µg/mL (≈ 5.72 µM)
  MIC Staphylococcus aureus (GC 1131): 16 µg/mL (≈ 11.4 µM)
  MIC Staphylococcus aureus (GC 4541): 16 µg/mL (≈ 11.4 µM)
  MIC Staphylococcus aureus (GC 4542): 16 µg/mL (≈ 11.4 µM)
  MIC Staphylococcus aureus (GC 4544): 8 µg/mL (≈ 5.72 µM)
  MIC Staphylococcus aureus (GC 4545): 16 µg/mL (≈ 11.4 µM)
  MIC Staphylococcus aureus-SMITH (GC 4543): 8 µg/mL (≈ 5.72 µM)
  MIC Staphylococcus haemolyticus (GC 4546): 8 µg/mL (≈ 5.72 µM)
Staphylococcus sp.; strain ATCC 29213
  MIC Staphylococcus aureus (ATCC 29213): 8 µg/mL (≈ 5.72 µM)
Staphylococcus sp.; strain GC 1131
  MIC Staphylococcus aureus (GC 1131): 16 µg/mL (≈ 11.4 µM)
Staphylococcus sp.; strain GC 4541
  MIC Staphylococcus aureus (GC 4541): 16 µg/mL (≈ 11.4 µM)
Staphylococcus sp.; strain GC 4542
  MIC Staphylococcus aureus (GC 4542): 16 µg/mL (≈ 11.4 µM)
Staphylococcus sp.; strain GC 4544
  MIC Staphylococcus aureus (GC 4544): 8 µg/mL (≈ 5.72 µM)
Staphylococcus sp.; strain GC 4545
  MIC Staphylococcus aureus (GC 4545): 16 µg/mL (≈ 11.4 µM)
Escherichia coli
  MIC Escherichia coli (ATCC 25922): >64 µg/mL
  MIC Escherichia coli (GC 4559): >64 µg/mL
  MIC Escherichia coli (GC 4560): 4 µg/mL (≈ 2.86 µM)
Streptococcus sp.; strain GC 4564
  MIC Streptococcus agalactiae (GC 4564): 8 µg/mL (≈ 5.72 µM)
Streptococcus sp.; strain ID-3187
  MIC Streptococcus pyogenes (ID-3187): 4 µg/mL (≈ 2.86 µM)
Enterococcus sp.; Enterococcus avium (GC 4558)
  MIC Enterococcus avium (GC 4558): 64 µg/mL (≈ 45.8 µM)
Enterococcus sp.; [1]
  MIC Enterococcus faecalis (ATCC 29212): >64 µg/mL
Enterococcus sp.; [2]
  MIC Enterococcus faecalis (GC 4553): 64 µg/mL (≈ 45.8 µM)
Enterococcus sp.; [3]
  MIC Enterococcus faecalis (GC 4554): >64 µg/mL
Enterococcus sp.; Enterococcus faecium (GC 2243)
  MIC Enterococcus faecium (GC 2243): >64 µg/mL
Enterococcus sp.; Enterococcus faecium (GC 4556)
  MIC Enterococcus faecium (GC 4556): 64 µg/mL (≈ 45.8 µM)
Enterococcus sp.; Enterococcus faecium (GC 4557)
  MIC Enterococcus faecium (GC 4557): 16 µg/mL (≈ 11.4 µM)
Enterococcus sp.; strain ATCC 29212
  MIC Enterococcus faecalis (ATCC 29212): >64 µg/mL
Enterococcus sp.; strain GC 2242
  MIC Enterococcus faecalis (GC 2242): 64 µg/mL (≈ 45.8 µM)
Enterococcus sp.; strain GC 2243
  MIC Enterococcus faecium (GC 2243): >64 µg/mL
Enterococcus sp.; strain GC 4552
  MIC Enterococcus faecalis (GC 4552): 64 µg/mL (≈ 45.8 µM)
Enterococcus sp.; strain GC 4553
  MIC Enterococcus faecalis (GC 4553): 64 µg/mL (≈ 45.8 µM)
Enterococcus sp.; strain GC 4554
  MIC Enterococcus faecalis (GC 4554): >64 µg/mL
Enterococcus sp.; strain GC 4556
  MIC Enterococcus faecium (GC 4556): 64 µg/mL (≈ 45.8 µM)
Enterococcus sp.; strain GC 4557
  MIC Enterococcus faecium (GC 4557): 16 µg/mL (≈ 11.4 µM)
Enterococcus sp.; strain GC 4558
  MIC Enterococcus avium (GC 4558): 64 µg/mL (≈ 45.8 µM)
